Entries after “also recorded” stand apart in the source; their conditions may differ. Read-outs that look alike come from different tables or passages of the source.
Tests used:
MDCK-MDR1 cells = system: MDCK-MDR1 cells; set-up: method as in data on file, Eli Lilly and Company; settings: ref data on file, Eli Lilly and Company; cited from earlier work
clinical = settings: human, in vivo
Pept1 knockout mice = system: Pept1 knockout mice; set-up: method as in data on file, Eli Lilly and Company; settings: ref data on file, Eli Lilly and Company; cited from earlier work
PEPT1 [1] = biological target: T1, PEPT1 (Homo sapiens, UniProt P46059); experiment: Proton- and time-dependent transport of prodrug and active moiety in PEPT1 transfected HeLa cells; assay type: in vitro ADME; set-up: expressed in transfected cells; host or cells: HeLa cells (ATCC), transiently transfected with Fugene 6, pcDNA3.1 vector; settings: 30 μM, pH 6.0 or 7.5, PEPT1 vs empty vector transfected HeLa cells
T1 sequence (P46059 1-708): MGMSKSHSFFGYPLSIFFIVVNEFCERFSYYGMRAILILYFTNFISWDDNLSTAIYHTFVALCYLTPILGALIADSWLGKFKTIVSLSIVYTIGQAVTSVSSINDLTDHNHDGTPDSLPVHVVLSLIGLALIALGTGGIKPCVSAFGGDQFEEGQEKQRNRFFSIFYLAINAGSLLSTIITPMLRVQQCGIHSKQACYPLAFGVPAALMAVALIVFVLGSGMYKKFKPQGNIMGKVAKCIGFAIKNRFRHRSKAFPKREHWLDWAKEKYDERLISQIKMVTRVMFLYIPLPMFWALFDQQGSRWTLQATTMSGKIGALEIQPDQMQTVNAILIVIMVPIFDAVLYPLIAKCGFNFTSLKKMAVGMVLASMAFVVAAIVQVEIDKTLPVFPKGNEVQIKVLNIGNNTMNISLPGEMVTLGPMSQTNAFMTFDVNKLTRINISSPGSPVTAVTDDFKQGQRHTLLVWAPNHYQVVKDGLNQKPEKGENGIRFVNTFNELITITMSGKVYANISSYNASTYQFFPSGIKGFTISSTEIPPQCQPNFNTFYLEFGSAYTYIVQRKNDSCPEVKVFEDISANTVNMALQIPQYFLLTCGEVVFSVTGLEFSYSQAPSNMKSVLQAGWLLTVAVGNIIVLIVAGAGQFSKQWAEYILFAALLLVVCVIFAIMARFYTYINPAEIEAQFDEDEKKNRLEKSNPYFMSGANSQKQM
Experimental: The PEPT1 mediated [^14C]LY2140023 (30 μM) and [^14C]LY404039 (30 μM) uptake was measured in cells 24 hours post transfection. The time-dependent transport of LY2140023 and LY404039 was conducted using buffers prepared at either pH 6.0 or 7.5 as described above. The cells transfected with empty pcDNA3.1 vector were used to measure the passive diffusion of LY2140023 and LY404039. The cells were incubated for 1, 2.5, 5, 7.5, 10, and 15 minutes at room temperature and were washed, lysed, and contents quantified as described above.

[2] = Clinical drug interaction study (H8Y-MC-HBCF), plasma and urine pharmacokinetics in healthy subjects; settings: for Tmax: median (min–max)
PEPT1 [3] = biological target: T1, PEPT1; experiment: Potential for clinical DDI: estimated GI concentration (I2) versus in vitro IC50; set-up: expressed in transfected cells; host or cells: HeLa cells (ATCC), transiently transfected with Fugene 6, pcDNA3.1 vector; settings: dose divided by 250 ml (glass of water)
Experimental: These concentrations (I2) were obtained by dividing the recommended clinical dose by a volume of 250 ml (volume of glass of water) (Table 3).
Subsequently, to normalize the inhibitory potential to the clinical dose, the in vitro IC50 values were […] (the volume of a glass of water).

[4] = Clinical study safety (adverse events) in healthy subjects; assay type: in vivo, human
PEPT1 [5] = biological target: T1, PEPT1; experiment: Inhibition of PEPT1-mediated [14C]Gly-Sar uptake in transfected HeLa cells; assay type: in vitro ADME; set-up: expressed in transfected cells; host or cells: HeLa cells (ATCC), transiently transfected with Fugene 6, pcDNA3.1 vector; settings: 25 μM [14C]Gly-Sar; LY2140023 5 to 1000 μM; 3 minutes; read-out: IC50 against Gly-Sar, mean of two separate experiments
Experimental: An inhibition assay was conducted using 25 μM [^14C]Gly-Sar (0.278 μCi/ml) as a probe substrate to assess if the uptake of [^14C]Gly-Sar was inhibited by prodrug (5 to 1000 μM). The cells were incubated for 3 minutes in uptake buffer containing 25 μM [^14C]Gly-Sar and different concentrations of LY2140023 at room temperature. The uptake was corrected for background determined by parallel experiment in cells transfected with pcDNA3.1 empty vector. Cell lysing and protein quantification were performed as described above.

[6] = human, in vivo
PEPT1 [7] = biological target: PEPT1; set-up: method as in Ganapathy et al. (1998); settings: ref Ganapathy et al. (1998); read-out: Ki value (printed in column IC50 against Gly-Sar); cited from earlier work
PEPT1 [8] = biological target: T1, PEPT1; experiment: Inhibition of PEPT1-mediated [14C]LY2140023 uptake in transfected HeLa cells; settings: 10 μM [14C]LY2140023
[9] = LY2140023 80 mg + valacyclovir 1000 mg coadministered, geometric mean (CV%)
[10] = human, plasma, oral, Cmax LS Geometric Mean, LY2140023 + Valacyclovir (Test)
[11] = human, plasma, oral, Cmax, LY2140023 80 mg + valacyclovir 1000 mg coadministered, geometric mean (CV%)
[12] = human, plasma, oral, LY2140023 80 mg + valacyclovir 1000 mg coadministered

In the case of `CSCC[C@H](N)C(=O)N[C@@]1(C(=O)O)CS(=O)(=O)[C@H]2[C@H](C(=O)O)[C@H]21` [LY2140023, Pomaglumetad methionil], the passive permeability (MDCK-MDR1 cells) is given as “approximately 1 × 10^−6 cm/s”, the Vd/F (clinical; Vz/F) is given as 166 L and the “AUC0–∞ in Pept1 knockout mice relative to wildtype mice” value (Pept1 knockout mice) is given as 10%. For the same compound, the “Cmax in Pept1 knockout mice relative to wildtype mice” value (Pept1 knockout mice) was 10%, the PEPT1 substrate status (PEPT1 [1]) was “a PEPT1 substrate; also recorded: PEPT1-mediated, proton-dependent process” and the PEPT1 substrate status (PEPT1 [1]; listed as LY2140023 monohydrate) was “is a substrate of PEPT1”. For the same compound, the CL/F [2, 9] was 65.9 (31) L/hour, the half-life ([2]; human, plasma, oral, 80 mg) was 1.92 h and the AUC(0-inf) ([2]; human, plasma, oral, 80 mg, AUC(0-∞) LS Geometric Mean, LY2140023 Alone (Reference)) was 1350 ng·h/mL. It also gave an AUC(0-inf) ([2]; human, plasma, oral, 80 mg, AUC(0-∞), single 80-mg dose of LY2140023 alone, geometric mean (CV%)) of 1330 ng·h/mL, a Cmax ([2]; human, plasma, oral, 80 mg, Cmax LS Geometric Mean, LY2140023 Alone (Reference)) of 310 ng/mL and a Cmax ([2]; human, plasma, oral, 80 mg, Cmax, single 80-mg dose of LY2140023 alone, geometric mean (CV%)) of 307 ng/mL. The Tmax ([2]; human, plasma, oral, 80 mg, single 80-mg dose of LY2140023 alone) was 3 h, the AUC(0-inf) ([2]; human, plasma, oral, AUC(0-∞) LS Geometric Mean, LY2140023 + Valacyclovir (Test)) was 1220 ng·h/mL and the AUC(0-inf) ([2]; human, plasma, oral, AUC(0-∞), LY2140023 80 mg + valacyclovir 1000 mg coadministered, geometric mean (CV%)) was 1210 ng·h/mL. The Cmax [2, 10] was 275 ng/mL, the Cmax [2, 11] was 272 ng/mL and the Tmax [2, 12] was 3 h. The CL/F ([2]; single 80-mg dose of LY2140023 alone, geometric mean (CV%)) was 60.2 (27) L/hour, the “Estimated Intestinal Concentration” value (PEPT1 [3]) was 0.873 mM and the “most common AEs” value ([4]; after prodrug alone (80 mg)) was “nausea, dizziness, somnolence, and headache”. The IC50 (PEPT1 [5]) was 18 µM.

`Nc1nc2c(ncn2COCCO)c(=O)[nH]1` [Acyclovir] showed an AUC(0-inf) (clinical; AUC(0-∞)) of 17500 ng·h/mL, an AUC(0-inf) (clinical; AUC(0-∞) LS Geometric Mean) of 17500 ng·h/mL and a Cmax (clinical; Cmax) of 4400 ng/mL. For the same compound, the Cmax (clinical; Cmax LS Geometric Mean) was 4400 ng/mL, the Tmax (clinical; tmax) was 2.5 h and the fe [6] was 0.460 (32.0).

In the case of `CC(C)[C@H](N)C(=O)OCCOCn1cnc2c(=O)[nH]c(N)nc21` [Valacyclovir], the Ki (PEPT1 [7]) is listed as 740 µM, the “fe (fraction of the dose excreted in urine)” value [2, 9] is listed as 0.00776 (25.4) and the AUC(0-t) ([2]; human, plasma, oral, 1000 mg, AUC(0-3) LS Geometric Mean, Valacyclovir Alone (Reference)) is listed as 309 ng·h/mL. For the same compound, the AUC(0-t) ([2]; human, plasma, oral, 1000 mg, AUC(0-3), single 1000-mg dose of valacyclovir alone, geometric mean (CV%), n = 22) was 311 ng·h/mL, the Cmax ([2]; human, plasma, oral, 1000 mg, Cmax LS Geometric Mean, Valacyclovir Alone (Reference)) was 245 ng/mL and the Cmax ([2]; human, plasma, oral, 1000 mg, Cmax, single 1000-mg dose of valacyclovir alone, geometric mean (CV%)) was 245 ng/mL. It also gave a Tmax ([2]; human, plasma, oral, 1000 mg, single 1000-mg dose of valacyclovir alone) of 2 h, an AUC(0-t) ([2]; human, plasma, oral, AUC(0-3) LS Geometric Mean, Valacyclovir + LY2140023 (Test)) of 278 ng·h/mL and an AUC(0-t) ([2]; human, plasma, oral, AUC(0-3), LY2140023 80 mg + valacyclovir 1000 mg coadministered, geometric mean (CV%)) of 270 ng·h/mL. The Cmax [2, 10] was 258 ng/mL, the Cmax [2, 11] was 255 ng/mL and the Tmax [2, 12] was 2 h. For the same compound, the CL renal ([2]; human, urine and plasma, oral, 1000 mg) was 262 mL/min, the fe ([2]; single 1000-mg dose of valacyclovir alone, geometric mean (CV%)) was 0.00703 (64.7) and the IC50 (PEPT1 [8]; IC50 against LY2140023, first of two separate experiments) was 410 ± 50 µM. The IC50 (PEPT1 [8]; IC50 against LY2140023, second of two separate experiments) was 500 ± 110 µM, the IC50 (PEPT1 [8]; Mean IC50 against LY2140023, mean of two separate experiments) was 460 µM and the adverse events ([4]; after 1000 mg of valacyclovir alone) was “mild AE of urticaria; also recorded: one severe AE of headache”.
